Holding throughout (type): physicochemical
Series [1] can be described thus: Phase behavior: optimal wt. % of co-surfactant leading to Will phase behavior in presence of crude oil. The protocol: (§1) 2.1 In the following examples, the performances of surfactants formulations containing the betaine of example 1.3.1 in a brine solution at 50 g/L NaCl were compared.
(§2) The total surfactant concentration was set at 8 g/L and the formulation variable was the wt. % of the more hydrophilic zwitterionic surfactant (considered as co-surfactant) in the surfactant blend.
(§3) The wt. % of the more hydrophilic zwitterionic leading to a Will phase behavior (optimal wt %. of co-surfactant), was determined in presence of crude oil at 40° C. and reported in Table 1. The solubility of surfactant blends was also analyzed.

Series [2] in a line: Interfacial tension with crude oil by spinning drop methods. Conditions: mixture of ADBB12 and the betaine from C23 ketones derived diamine at the optimal wt. %. As to the method: All the linear alkyl betaines, solutions separate in two phases or forms really turbid solutions (0.86 absorbance). Interfacial tension with crude oil of the mixture ADBB12 and the betaine from C23 ketones derived diamine at the optimal wt. % was evaluated by spinning drop methods. The ultra-low interfacial tension was confirmed (=10^−3 mN/m).

A short description of series [3]: Solubility of surfactant blends (absorbance). The protocol:
as §1, §2, §3
2.2. In terms of interfacial tension, all the blends studied led to ultra-low values (<10^−2 mN/m). On the other hand, only the hydrophilic amido betaine derived from a branched C12 acid (ADBB12) allows obtaining a homogeneous but opalescent water solution (absorbance of 0.46) at the optimal formulation (71 wt. %).

A short description of series [4]: Interfacial tension calculated from solubility ratios at the equilibrium phase behavior. The protocol: as §3

“And” between values parts separate entries of the source, which are not always exact repeats. Equal values may be shown once.

For the compound `CCCCCCC(CCCC)C(=O)NCCC[N+](C)(C)CC(=O)[O-]` (stereo not shown) [ADBB12], the Optimal % co-surfactant was 71% in series [1] (blend with betaine of example 1.3.1, brine 50 g/L NaCl, total surfactant 8 g/L, crude oil, 40° C., wt. % of co-surfactant in the blend) and 64% in series [1] (blend with sulfobetaine from C23 ketone derived diamine, same conditions as the betaines (50 g/L NaCl, 8 g/L, crude oil, 40° C.)). Moreover, the “Interfacial tension with crude oil” value in series [2] was 10^−3 mN/m. Also, the Absorbance in series [3] (blend with betaine of example 1.3.1 at optimal wt. % co-surfactant, brine 50 g/L NaCl, total surfactant 8 g/L) was 0.46 and 0.45; in series [3] (blend with sulfobetaine from C23 ketone derived diamine at optimal wt. % co-surfactant), 0.84. For the same compound, the “γw (interfacial tension)” value in series [4] (blend with betaine of example 1.3.1 at optimal wt. %, brine 50 g/L NaCl, 8 g/L, crude oil, 40° C.) is listed as 3,4 mN/m · 10^3; in series [4] (blend with sulfobetaine from C23 ketone derived diamine at optimal wt. %) it was 3.3 mN/m · 10^3.

(Values after patent US11028315B2, “Zwitterionic surfactants suitable for enhanced oil recovery” (RHODIA OPERATIONS, priority 2016, dated 2021).)
